Experimental data from patent publication US12673039B2, “Methods of inducing autophagy using coumarin derivatives and related compounds” (Buck Institute for Research on Aging, priority 2019, dated 2026).

Test system: TSC1+/− human neuronal SH-SY5Y cells
Assay: TAU, phosphorylated-TAU, insoluble tau and viability in TSC1 mutant SH-SY5Y neuronal cells
Format: cell-based
Procedure: FIG. 8 A) Representative Western blot analysis of detergent-insoluble tau levels in control versus three independent TSC1-mutant SY5Y cell lines (A1, A3, A3A9) treated with 10 μM C1 (AIC106) versus vehicle. FIG. 8B) Quantitation of insoluble tau levels in control (Emty) versus mutant TSC1 lines treated with C1 (AIC106) versus vehicle (−). Values represent fold change versus vehicle-treated controls, *p<0.01.
FIG. 23, panels A-H: FXR modulation enhances HLH-30 expression in human neuronal SH-SY5Y cells. Panel A) Effects of AIC106 on human FXR activity was determined in a mammalian one-hybrid based kit assay by quantifying changes in the luciferase activity of FXR ligand (GW4064, GW) induced treatment. [N=3 independent experiments (mean±SD). ****p<0.0001, by one-way ANOVA with Tukey's multiple comparisons test]. Panel B) Protein expression of TFEB, cathepsin-D (CAT-D) and small heterodimer partner-1 (SHP-1) was determined by immunoblot in neuronal SH-SY5Y cells post-24 hours of treatment with AIC106 and DMSO-control. Panel C) AIC106 enhances autophagic flux in neuronal SH-SY5Y cells. Autophagic flux in DMSO-control and AIC106 treated neuronal cells was determined by quantifying levels of autophagosome specific LC3-II protein both in presence and absence of autophagy inhibitor bafliomycin A1 (Baf A, 10 nM). Panel D) Relative fold change in the band intensity of LC3-II protein, normalized to loading control actin. Values are relative to DMSO-control. [N=3 independent experiments (mean±SD). *p<0.05 and ****p<0.0001, by one-way ANOVA with Tukey's multiple comparisons test]. Panel E) Effects of AIC106 treatment for 72 hours on basal TAU and phosphorylated-TAU in differentiated human neuronal SH-SHY5Y and heterozygous TSC1(+/−) mutant SH-SY5Y neuronal cells were quantitated by immunoblotting following total protein extraction. Relative fold change in the band intensity compared to SH-SY5Y control treatment for (panel F) total TAU and (panel G) phosphorylated-TAU, normalized to loading control GAPDH. [N=3 independent experiments (mean±SD). *p<0.05 and **p<0.01, by one-way ANOVA with Sidak's multiple comparisons test]. Panel H) AIC106 treatment improves viability and health of differentiated SH-SY5Y-TSC1(+/−) neuronal cells. Images were taken post-96 hours after treatment of differentiated neuronal cells with AIC106.
The rat dopaminergic cell line 1RB3AN27 (N27) was grown in RPMI 1640 medium supplemented with 10% fetal calf serum (Invitrogen), 100 U/ml penicillin, and 100 μg/ml streptomycin. SH-SY5Y TSC1+/− lines were generated as described previously (Olney et al., 2017). […]

[1] = TSC1+/− SH-SY5Y cells, 72 hours

Q: Which results are given for O=c1oc2c3c4c(cc2c2c1CCC2)CCCN4CCC3 [C1, 2,3,6,7,10,11-Hexahydro-1H,5H-cyclopenta(3,4)(1)benzopyrano(6,7,8-ij)quinolizin-12(9H)-one]?
A: TAU levels [1]: without significantly changing TAU levels; phosphorylated-TAU [1]: decrease of phosphorylated-TAU; insoluble tau levels (TSC1-mutant SY5Y cell lines, 10 μM C1 (FIG. 8)): reduce levels of insoluble tau levels; viability and general health of differentiated cells (differentiated TSC1+/− SH-SY5Y cells, 96 hours): prevented loss in viability
